# Experimental data as given in patent publication US8158621B2, “Methods of treating or preventing autoimmune diseases with 2,4-pyrimidinediamine compounds” (Rigel Pharmaceuticals, Inc., priority 2002, dated 2012).
# System: Human Jurkat T-cells (clone N)
# Assay: Jurkat T-cell activation (anti-TCR, CD69 upregulation)
# Type: cell-based
# Conditions: not given
# Procedure, shortened: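 Jurkat cells in RPMI + 5% FBS preincubated with compound 1 h at 37 °C, then stimulated with anti-TCR C305 at 500 ng/ml for 20 h. CD69 surface expression stained with anti-CD69-APC and read by flow cytometry; IC50 versus solvent-only control.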
row,IC50 [µM],Compound
1,20.2,CC(C)NC(=O)COc1ccc(Nc2ncc(C#N)c(Nc3ccc(OCC(=O)NC(C)C)cc3)n2)cc1 [Compound R925861]
2,1.03,CNC(=O)COc1cccc(Nc2ncc(F)c(Nc3ccc4c(c3)C(N=[N+]=[N-])CCO4)n2)c1 (stereo not shown) [Compound R950383]
3,6.76,CNC(=O)COc1cccc(Nc2ncc(F)c(Nc3ccc(-n4cnc(Cl)c4Cl)cc3)n2)c1 [Compound R926812]
4,> 10,CNC(=O)C(C)(C)Oc1cccc(Nc2ncc(F)c(Nc3ccc4c(c3)OCCO4)n2)c1 [Compound R926915]
5,> 10,CNC(=O)COc1cccc(Nc2ncc(F)c(Nc3ccc(Cl)c(-c4nc5ccccc5s4)c3)n2)c1 [Compound R926900]
6,> 10,CNC(=O)Cn1ncc2cc(Nc3ncc(F)c(Nc4ccc5c(cnn5CC(=O)NC)c4)n3)ccc21 [Compound R935217]
7,2.91,Oc1cccc(Nc2ncc(F)c(Nc3ccc4[nH]ncc4c3)n2)c1 [Compound R935268]
8,> 10,O=[N+]([O-])c1ccc(NCCO)c(Nc2ncc(F)c(Nc3cc([N+](=O)[O-])ccc3NCCO)n2)c1 [Compound R950150]
9,> 10,Fc1cnc(Nc2ccc(OCc3nc(-c4ccccc4)no3)cc2)nc1Nc1ccc2c(c1)OCCO2 [Compound R935136]
10,3.47,Fc1cnc(Nc2ccc3cn[nH]c3c2)nc1Nc1ccc2c(c1)OCCO2 [Compound R935190]
11,> 10,CCOC(=O)C(C)(C)Oc1cccc(Nc2ncc(F)c(Nc3cccc(O)c3)n2)c1 [Compound R926906]
12,5.36,COc1ccc([C@@H](C)Nc2ncc(Br)c(N[C@H](C)c3ccc(OC)cc3)n2)cc1 [Compound R935016]
13,> 10,O=C(c1cccc(Nc2ncc(F)c(Nc3cccc(O)c3)n2)c1)N1CCOCC1 [Compound R926938]
14,5.4,CNC(=O)COc1cccc(Nc2ncc(F)c(Nc3cnc4c(c3)OC(C)(C)C(=O)N4)n2)c1 [Compound R940345]
15,13,CCOC(=O)C(C)Oc1ccc(Nc2ncc(C)c(Nc3ccc(OC(C)C(=O)OCC)cc3)n2)cc1 (racemic) [Compound R926259]
16,> 10,O=C(O)COc1cccc(Nc2ncc(F)c(Nc3ccc(O)c(C(=O)O)c3)n2)c1 [Compound R950291]
17,9.69,O=C(CNc1cccc(Nc2ncc(F)c(Nc3cccc(NCCO)c3)n2)c1)N1CCOCC1 [Compound R950236]
18,10.7,COC(=O)Cn1ncc2ccc(Nc3ncc(F)c(Nc4ccc5cnn(CC(=O)OC)c5c4)n3)cc21 [Compound R935205]
19,3.09,CNC(=O)c1cc(COc2cccc(Nc3ncc(F)c(Nc4ccc5c(c4)OCCO5)n3)c2)co1 [Compound R935213]
20,1.39,COc1ccc(Nc2nc(Nc3cc(C)c(O)c(Cl)c3)ncc2F)cc1CN1CCNCC1 [Compound R940318]
21,6.27,Nc1ccc(Nc2ncc(F)c(Nc3ccc(N)cc3)n2)cc1 [Compound R950121]

row,IC50 [µM],Compound
1,11.2,COC(=O)c1cnc(Nc2ccc(OCC(=O)N3CCCC3)cc2)nc1Nc1ccc(OCC(=O)N2CCCC2)cc1 [Compound R926559]
2,9.81,O=C(COc1cccc(Nc2ncc(F)c(Nc3ccc4c(c3)OCCO4)n2)c1)N(CCO)CCO [Compound R926781]
3,> 10,C[C@H](Nc1nc(Nc2ccc3c(c2)OCCO3)ncc1F)[C@H](O)c1ccccc1 [Compound R925766]
4,1.95,CCOC1CCOc2ccc(Nc3nc(Nc4cccc(OCC(=O)NC)c4)ncc3F)cc21 (stereo not shown) [Compound R950296]
5,2.09,Cc1cc(Nc2nc(Nc3cccc(OCC(=O)N4CCNCC4)c3)ncc2F)cc(C)c1O [Compound R945140]
6,3.93,CC(C)(CO)c1ccc(Nc2ncc(F)c(Nc3cccc(O)c3)n2)cc1 [Compound R935171]
7,0.878,CC(=NO)c1cccc(Nc2ncc(F)c(Nc3cccc(C(C)=NO)c3)n2)c1 [Compound R950379]
8,2.43,CC(C)Oc1ccc(Nc2nc(Nc3ccc4[nH]ncc4c3)ncc2F)cc1 [Compound R935197]
9,5.19,O=C(CNc1cccc(Nc2ncc(F)c(Nc3cccc(NCCO)c3)n2)c1)N1CCNCC1 [Compound R950241]
10,7.54,CCOC(=O)C(C)(C)c1ccc(Nc2nc(Nc3cccc(O)c3)ncc2F)cc1 [Compound R935169]
11,> 10,CCOC(=O)C(C)(Oc1cccc(Nc2nc(Nc3ccc(OC(C)C)cc3)ncc2F)c1)C(=O)OCC [Compound R935187]
12,> 10,O=[N+]([O-])c1ccc(NCCO)c(Nc2ccnc(Nc3cc([N+](=O)[O-])ccc3NCCO)n2)c1 [Compound R950156]
13,4.57,CC1(C)Oc2ccc(Nc3nc(Cl)ncc3F)cc2NC1=O [Compound R940322]
14,12.7,CCOC(=O)COc1cccc(Nc2nc(Nc3ccc4c(c3)OCCO4)ncc2F)c1 [Compound R926774]
15,0.805,ON=C1CCOc2ccc(Nc3ncc(F)c(Nc4ccc5c(c4)C(=NO)CCO5)n3)cc21 [Compound R950381]
16,2.59,CNC(=O)CNc1cccc(Nc2ncc(F)c(Nc3ccc4c(c3)OCCO4)n2)c1 [Compound R950191]
17,9.79,CCOC(=O)COc1cccc(Nc2ncc(F)c(Nc3ccc4c(c3)C(OC)CCO4)n2)c1 (stereo not shown) [Compound R950294]
18,3.91,CC(C)(CO)c1ccc(Nc2nc(Nc3ccc4c(c3)OCCO4)ncc2F)cc1 [Compound R935173]
19,0.982,CNC(=O)COc1cccc(Nc2ncc(F)c(Nc3cccc(NCCO)c3)n2)c1 [Compound R950265]
20,17.4,CNC(=O)COc1cccc(Nc2ncc(F)c(Nc3cccc([N+](=O)[O-])c3)n2)c1 [Compound R950261]

# Same assay, conditions: Homo sapiens
row,Compound,IC50 [µM]
1,Cc1ccc(Nc2ccnc(Nc3ccc(C)c([N+](=O)[O-])c3)n2)cc1[N+](=O)[O-] [Compound R950153],> 10
2,Cc1ccc(Nc2ncc(F)c(Nc3ccc(C)c([N+](=O)[O-])c3)n2)cc1[N+](=O)[O-] [Compound R950144],> 10

# Same assay, conditions: Homo sapiens, Jurkat
row,IC50 [µM],Compound
1,> 10,O=[N+]([O-])c1cnc(Nc2ccc3c(c2)OC(F)(F)O3)nc1Nc1ccc2c(c1)OC(F)(F)O2 [Compound R940100]
2,> 10,COc1ccc(Nc2ncc(F)c(Nc3ccc4c(c3)OCCO4)n2)c(C)c1 [Compound R926845]
3,> 10,COc1cc(Nc2ncc(F)c(Nc3ccc(C(=O)O)c(OC)c3)n2)ccc1C(=O)O [Compound R945068]
4,> 10,CCOC(=O)Nc1ccc(Nc2ncc(F)c(Nc3ccc(NC(=O)OCC)c(O)c3)n2)cc1O [Compound R926340]
5,2.77,Fc1cnc(Nc2ccc3[nH]ccc3c2)nc1Nc1ccc2c(c1)OCCO2 [Compound R926748]
6,> 10,Fc1cnc(Nc2ccc(N3CCN(Cc4ccccc4)CC3)cc2)nc1Nc1ccc2c(c1)OCCO2 [Compound R945163]
7,22.4,Nc1cc(Nc2ncc(F)c(Nc3cc(N)cc(C(F)(F)F)c3)n2)cc(C(F)(F)F)c1 [Compound R950140]
8,9.45,CNC(=O)c1cc2cc(Nc3ncc(F)c(Nc4cccc(C(C)(C)C)c4)n3)ccc2o1 [Compound R940291]
9,17.7,Oc1cccc(Nc2ncc(F)c(Nc3ccc(Cl)nc3)n2)c1 [Compound R927018]
10,3.8,OCCN(CCO)c1cccc(Nc2ncc(F)c(Nc3ccc4c(c3)OCCO4)n2)c1 [Compound R950209]
11,11.8,CCOC(=O)C1CCN(C(=O)c2cccc(Nc3ncc(F)c(Nc4ccc5cc[nH]c5c4)n3)c2)CC1 [Compound R926935]
12,3.47,CN(C)CCOc1cccc(Nc2ncc(F)c(Nc3ccc4c(c3)OCCO4)n2)c1 [Compound R926771]
13,> 10,Fc1cnc(Nc2ccccc2-c2ccccc2)nc1Nc1ccccc1-c1ccccc1 [Compound R926398]
14,> 10,COc1ccc(Nc2ncc(F)c(Nc3ccc(OC)c(C(=O)O)c3)n2)cc1C(=O)O [Compound R945067]
15,> 10,Cc1ccc(Nc2ccnc(Nc3ccc(C)c(N)c3)n2)cc1N [Compound R950130]
16,9.47,CC(=O)Nc1ccc(Nc2ncc(F)c(Nc3ccc(NC(C)=O)cc3)n2)cc1 [Compound R940222]
17,> 10,COc1ccc(Nc2ncc(Br)c(Nc3ccc(OC)c(-c4ccccc4)c3)n2)cc1-c1ccccc1 [Compound R925802]

row,IC50 [µM],Compound
1,> 10,COc1ccc(-c2ccccc2)cc1Nc1ncc(Br)c(Nc2cc(-c3ccccc3)ccc2OC)n1 [Compound R925799]
2,> 10,Cc1ccc(Nc2ncc(F)c(Nc3ccc(C)cc3)n2)cc1 [Compound R926225]
3,> 10,Nc1nc(N(CC(O)c2ccccc2)c2ccc3c(c2)OCCO3)ncc1F (stereo not shown) [Compound R925765]
4,> 10,O=[N+]([O-])c1cnc(Nc2ccc3c(c2)OCCO3)nc1Nc1ccc2c(c1)OCCO2 [Compound R940095]
5,20.2,Nc1nc(N(c2ccc(CO)cc2)c2ccc3c(c2)OCCO3)ncc1F [Compound R925760]
6,21.4,Nc1ccc(F)c(Nc2ncc(F)c(Nc3cc(N)ccc3F)n2)c1 [Compound R950158]
7,> 10,Fc1cnc(Nc2cccc(OCc3ccccc3)c2)nc1Nc1cccc(OCc2ccccc2)c1 [Compound R926394]
8,0.694,COc1cc(Nc2ncc(F)c(Nc3cccc(O)c3)n2)cc(OC)c1OC [Compound R926761]
9,24.5,Fc1cnc(NCc2ccc3c(c2)CCO3)nc1Nc1ccc2c(c1)OCCO2 [Compound R950205]
10,> 10,Fc1cnc(NCC2COc3ccccc3O2)nc1Nc1ccc2c(c1)OCCO2 (stereo not shown) [Compound R950206]
11,> 10,Fc1cnc(NCCc2ccccc2)nc1Nc1ccc2c(c1)OCCO2 (racemic) [Compound R908697]
12,> 10,COC(=O)c1cc2cc(Nc3ncc(F)c(Nc4ccc5oc(C(=O)OC)cc5c4)n3)ccc2o1 [Compound R926604]
13,15,CCOc1ccc(Nc2ncc(F)c(Nc3ccc4c(c3)OCCO4)n2)cc1 [Compound R926211]
14,14.2,CCOC(=O)C(Nc1ncc(C#N)c(NC(C(=O)OCC)C(C)C)n1)C(C)C (stereo not shown) [Compound R925814]
15,> 10,COc1ccc(Nc2ncc(F)c(Nc3ccc4c(c3)OCCO4)n2)c(OC)c1 [Compound R926789]
16,18.5,Oc1cccc(Nc2ncc(F)c(Nc3ccc4c(c3)C=CCC4)n2)c1 [Compound R926943]
